Measurements published in PubChem BioAssay AID248 (DTP/NCI, 2004).
Where “and” joins values, the source holds several entries; their conditions need not be identical. Equal values may be shown once. Inconclusive results and toxic doses are left out. Cut-off read from the data, not from the text of the source: active = T/C of 150% or more; inactive = T/C below 125%.

Tested on: L1210 leukemia ip in BDF1 mice, survival T/C
Assay: NCI In Vivo Anticancer Drug Screen. Data for tumor model L1210 Leukemia (intraperitoneal) in B6D2F1 (BDF1) mice
Settings: endpoint: mean survival time, higher = longer survival
How it was run: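 Mice bearing the transplanted tumor received compound or vehicle. Survival of the treated group was divided by that of the vehicle-treated control group to give the ratio.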

[1] = dose: 100.0 mg/kg/injection, schedule: Q01DX009 (ip), vehicle: other
[2] = dose: 100.0 mg/kg/injection, schedule: Q04DX003 (ip), vehicle: other
[3] = dose: 200.0 mg/kg/injection, schedule: Q01DX009 (ip), vehicle: other
[4] = dose: 200.0 mg/kg/injection, schedule: Q04DX003 (ip), vehicle: other
[5] = dose: 400.0 mg/kg/injection, schedule: Q04DX003 (ip), vehicle: other
[6] = dose: 100.0 mg/kg/injection, schedule: Q01DX001 (ip), vehicle: saline
[7] = dose: 200.0 mg/kg/injection, schedule: Q01DX001 (ip), vehicle: saline
[8] = dose: 400.0 mg/kg/injection, schedule: Q01DX001 (ip), vehicle: saline
[9] = dose: 100.0 mg/kg/injection, schedule: Q04DX003 (ip), vehicle: saline
[10] = dose: 200.0 mg/kg/injection, schedule: Q04DX003 (ip), vehicle: saline
[11] = dose: 100.0 mg/kg/injection, schedule: Q04DX003 (ip), vehicle: Klucel (hydroxypropylcellulose) (HPC)
[12] = dose: 200.0 mg/kg/injection, schedule: Q04DX003 (ip), vehicle: Klucel (hydroxypropylcellulose) (HPC)
[13] = dose: 400.0 mg/kg/injection, schedule: Q04DX003 (ip), vehicle: Klucel (hydroxypropylcellulose) (HPC)
[14] = dose: 100.0 mg/kg/injection, schedule: Q01DX009 (ip), vehicle: Klucel (hydroxypropylcellulose) (HPC)
[15] = dose: 200.0 mg/kg/injection, schedule: Q01DX009 (ip), vehicle: Klucel (hydroxypropylcellulose) (HPC)
[16] = dose: 400.0 mg/kg/injection, schedule: Q01DX009 (ip), vehicle: Klucel (hydroxypropylcellulose) (HPC)
[17] = dose: 25.0 mg/kg/injection, schedule: Q01DX009 (ip), vehicle: Klucel (hydroxypropylcellulose) (HPC)
[18] = dose: 50.0 mg/kg/injection, schedule: Q01DX009 (ip), vehicle: Klucel (hydroxypropylcellulose) (HPC)
[19] = dose: 100.0 mg/kg/injection, schedule: Q04DX002 (ip), vehicle: Klucel (hydroxypropylcellulose) (HPC)
[20] = dose: 200.0 mg/kg/injection, schedule: Q04DX002 (ip), vehicle: Klucel (hydroxypropylcellulose) (HPC)
[21] = dose: 400.0 mg/kg/injection, schedule: Q04DX002 (ip), vehicle: Klucel (hydroxypropylcellulose) (HPC)
[22] = dose: 100.0 mg/kg/injection, schedule: Q01DX009 (ip), vehicle: saline
[23] = dose: 200.0 mg/kg/injection, schedule: Q01DX009 (ip), vehicle: saline
[24] = dose: 400.0 mg/kg/injection, schedule: Q01DX009 (ip), vehicle: saline
[25] = dose: 100.0 mg/kg/injection, schedule: Q01DX009 (ip), vehicle: saline with Tween-80
[26] = dose: 200.0 mg/kg/injection, schedule: Q01DX009 (ip), vehicle: saline with Tween-80
[27] = dose: 400.0 mg/kg/injection, schedule: Q01DX009 (ip), vehicle: saline with Tween-80
[28] = dose: 100.0 mg/kg/injection, schedule: Q04DX003 (ip), vehicle: saline with Tween-80
[29] = dose: 200.0 mg/kg/injection, schedule: Q04DX003 (ip), vehicle: saline with Tween-80
[30] = dose: 400.0 mg/kg/injection, schedule: Q04DX003 (ip), vehicle: saline with Tween-80
[31] = dose: 50.0 mg/kg/injection, schedule: Q01DX009 (ip), vehicle: saline with Tween-80

Measured: T/C

C=C(Cl)CN(CCCC(=O)O)c1ccccc1
inactive: [1] 108 % of control | [2] 98 % of control | [3] 107 % of control | [4] 106 % of control | dose: 400.0 mg/kg/injection, schedule: Q01DX009 (ip), vehicle: other 102 % of control | [5] 108 % of control

COC(=O)c1ccccc1N(Cc1ccc(OC)c(OC)c1)S(=O)(=O)c1ccc(C)cc1
inactive: [6] 95 % of control | [7] 91 % of control | [8] 91 % of control

O=C(Nc1cccs1)c1ccccc1
inactive: [9] 97 % of control | [10] 93 % of control | dose: 400.0 mg/kg/injection, schedule: Q04DX003 (ip), vehicle: saline 95 % of control

O=P1(CCc2ccc(Cl)cc2)CC(Br)C(Br)C1 (configuration not stated)
inactive: [2] 93 % of control | [4] 95 % of control | [5] 98 % of control

O=C(/C=C(/CC(=O)c1ccccc1)C(=O)c1ccccc1)c1ccccc1
inactive: [11] 103 % of control | [12] 95 % of control | [13] 101 % of control

Cc1ccc([N+](=O)[O-])cc1NS(=O)(=O)c1cc(Cl)c(Cl)cc1Cl
inactive: [14] 95 % of control | [15] 108 % of control | [16] 90 % of control

CC(C)=CCC(CCN(C)C)(C(N)=O)c1ccc2ccccc2c1 (configuration not stated)
inactive: dose: 12.5 mg/kg/injection, schedule: Q01DX009 (ip), vehicle: Klucel (hydroxypropylcellulose) (HPC) 93 % of control | [17] 86 % of control | [18] 91 % of control

CCN(CC)c1ccc(S(=O)(=O)NC(=O)OC)cc1
inactive: [19] 98 % of control | [20] 112 % of control | [21] 112 % of control

Clc1ccc(Cl)c(-c2csc(-c3cccnc3)n2)c1
inactive: [22] 100 % of control | [23] 100 % of control | [24] 89 % of control

CC(C)NNC(=O)c1ccccc1N
inactive: [17] 103 % of control | dose: 25.0 mg/kg/injection, schedule: Q04DX003 (ip), vehicle: Klucel (hydroxypropylcellulose) (HPC) 96 % of control | [18] 98 % of control | dose: 50.0 mg/kg/injection, schedule: Q04DX003 (ip), vehicle: Klucel (hydroxypropylcellulose) (HPC) 89 % of control | [14] 93 % of control | [11] 91 % of control | [15] 92 % of control | [12] 100 % of control | [13] 94 % of control

Cc1ccc(S(=O)(=O)NC(=O)Oc2c(C(C)C)cccc2C(C)C)cc1
inactive: dose: 50.0 mg/kg/injection, schedule: Q04DX003 (ip), vehicle: saline 110 % of control | [9] 110 % of control | [10] 102 % of control

Cc1cccc(NC(=O)NCC(=O)NNC(=O)Nc2cc([N+](=O)[O-])ccc2C)n1
inactive: [18] 100 % of control | [14] 89 % of control | [15] 88 % of control

O=C(O)c1c(Br)c(Br)c(Br)c(Br)c1C(=O)Nc1ccc(Cl)cc1C(F)(F)F
inactive: [14] 101 % of control | [15] 112 % of control | [16] 102 % of control

NC(N)=NC(N)=NCc1ccc(S(N)(=O)=O)cc1
inactive: [6] 102 % of control | [22] 96 % of control | [7] 94 % of control | [23] 100 % of control | [8] 103 % of control | [24] 97 % of control

O=C1NC(=O)C(Cc2ccc(Cl)cc2)C(=O)N1
inactive: [25] 103 % of control | dose: 100.0 mg/kg/injection, schedule: Q04DX002 (ip), vehicle: saline with Tween-80 93 % of control | [26] 98 % of control | dose: 200.0 mg/kg/injection, schedule: Q04DX002 (ip), vehicle: saline with Tween-80 101 % of control | [27] 98 % of control | dose: 400.0 mg/kg/injection, schedule: Q04DX002 (ip), vehicle: saline with Tween-80 101 % of control

O=C1CCCCCCCCCCCCCC1
inactive: [19] 102 % of control | [20] 102 % of control | [21] 102 % of control

COc1ccc(C(=O)OCc2ccccc2CN(C)C)cc1
inactive: dose: 100.0 mg/kg/injection, schedule: Q04DX002 (ip), vehicle: saline 105 % of control | dose: 200.0 mg/kg/injection, schedule: Q04DX002 (ip), vehicle: saline 105 % of control

CCCC[C@H]1C(=O)O[C@H](C)[C@H](NC(=O)c2cccc(NC=O)c2O)C(=O)O[C@@H](C)[C@@H]1OC(=O)CC(C)C
inactive: dose: 0.5 mg/kg/injection, schedule: Q01DX001 (ip), vehicle: carboxymethylcellulose (CMC) 92 % of control | dose: 1.0 mg/kg/injection, schedule: Q01DX001 (ip), vehicle: carboxymethylcellulose (CMC) 101 % of control | dose: 2.0 mg/kg/injection, schedule: Q01DX001 (ip), vehicle: carboxymethylcellulose (CMC) 94 % of control

O=C(Nc1ccc(I)cc1)Nc1cc(C(F)(F)F)ccc1Cl
inactive: [14] 100 % of control | [15] 93 % of control | [16] 88 % of control

Cc1cccc(C)c1N=C=O
inactive: [1] 93 % of control | [28] 105 % of control | [3] 106 % of control | [29] 100 % of control | [30] 109 % of control

COc1cc2c(cc1OC)-c1c(OC)c(OC)cc3c1[C@H](C2)N(C)CC3
inactive: dose: 100.0 mg/kg/injection, schedule: Q01DX001 (ip), vehicle: carboxymethylcellulose (CMC) 96 % of control | dose: 200.0 mg/kg/injection, schedule: Q01DX001 (ip), vehicle: carboxymethylcellulose (CMC) 100 % of control | dose: 400.0 mg/kg/injection, schedule: Q01DX001 (ip), vehicle: carboxymethylcellulose (CMC) 100 % of control

CCCCSCc1nc2nc(Cl)c(Cl)nc2[nH]1
inactive: [31] 96 % of control | [25] 98 % of control and 92 % of control | [28] 100 % of control | [26] 112 % of control | [29] 98 % of control | [27] 95 % of control and 96 % of control | [30] 98 % of control

COc1ccc2c(c1)CCC1(C)C2=CC(=O)/C1=C\[O-].COc1ccc2c(c1)CCC1(C)C2=CC(=O)/C1=C\[O-].[Cu+2] (configuration not stated)
inactive: dose: 25.0 mg/kg/injection, schedule: Q01DX009 (ip), vehicle: saline with Tween-80 108 % of control | [31] 113 % of control | [25] 97 % of control | dose: 100.0 mg/kg/injection, schedule: Q04DX003 (ip), vehicle: saline sonified 91 % of control

Cc1ccc(S(=O)(=O)c2ccc(S(=O)(=O)c3ccccc3)cc2)cc1
inactive: [6] 95 % of control and 92 % of control | [7] 97 % of control | [8] 105 % of control and 91 % of control

CCCCN(C)N=Nc1n[nH]nc1C(N)=O
inactive: dose: 25.0 mg/kg/injection, schedule: Q01DX Z (ip), vehicle: carboxymethylcellulose (CMC) 118 % of control | dose: 50.0 mg/kg/injection, schedule: Q01DX Z (ip), vehicle: carboxymethylcellulose (CMC) 113 % of control | dose: 250.0 mg/kg/injection, schedule: Q01DX001 (ip), vehicle: carboxymethylcellulose (CMC) 123 % of control

CSC1C(O)C(CO)OC1n1cnc2c(N)ncnc21 (configuration not stated)
inactive: dose: 100.0 mg/kg/injection, schedule: Q01DX005 (ip), vehicle: saline 100 % of control | dose: 200.0 mg/kg/injection, schedule: Q01DX005 (ip), vehicle: saline 106 % of control

Cc1cccc(C)c1-n1c(=S)[nH]n(-c2ccccc2)c1=S
inactive: [25] 91 % of control | [28] 96 % of control | [26] 93 % of control | [29] 96 % of control | [27] 94 % of control | [30] 105 % of control

O=P(NC1CCCCC1)(NC1CCCCC1)c1ccccc1
inactive: dose: 100.0 mg/kg/injection, schedule: Q04DX002 (ip), vehicle: gum acacia 104 % of control | dose: 200.0 mg/kg/injection, schedule: Q04DX002 (ip), vehicle: gum acacia 93 % of control | dose: 400.0 mg/kg/injection, schedule: Q04DX002 (ip), vehicle: gum acacia 96 % of control
